Experimental data: US11135186B2, “Regulators of the endoplasmic reticulum proteostasis network” (The Scripps Research Institute, priority 2015, dated 2021)
pEC50: −log10 of the molar value.

What was measured:
[1] = test system: ERSE-FLuc reporter (ATF6 arm of the UPR); experiment: ERSE-FLuc reporter, 1536-well confirmation screen in HEK293T-Rex cells; assay type: cell-based; conditions: % Tg (500 nM) activation, triplicate confirmation screen at 6.8 μM, 18 h
Description: We employed a transcriptional reporter that quantifies activation of the ATF6 arm of the UPR in HEK293T-Rex cells. This reporter contains a fragment of the UPR-inducible BiP promoter, including three ER stress-responsive elements (ERSEs), driving expression of firefly luciferase (ERSE-FLuc; FIG. 1a)^34. We previously employed this reporter for a small-scale screen using the 1280 member compound Library of Pharmacologic Active Compounds (LoPAC) to find small molecules that activate the UPR^8. […] Optimization and miniaturization of this assay to 1536-well format was performed at the Scripps Research Institute Molecule Screening Center (SRIMSC).
(§1) HEK293T-Rex cells incorporating either the ERSE-FLuc or XBP1s-RLuc reporters were collected by trypsinization and resuspended at a density of 500,000 cells per mL. The assay was started by dispensing 5 μL of cell suspension into each well of white, solid-bottom 1536-well plates using a flying reagent dispenser (FRD) and placed into an online incubator 3 h. Cells were then treated with 34 nL/well of either test compounds to give final concentrations of 6.8 μM, DMSO (Low control, final concentration 0.68%, 0% activation) or […] of Delta-7 thapsigargin (High control, final concentration 500 nM, 100% activation). Plates were incubated for 18 h at 37° C., removed from the incubator and equilibrated to room temperature for 10 min. Luciferase activity was detected by addition of 5 μL of ONE-Glo reagent (Promega) to each well. After a 10 min incubation time, light emission was measured with the ViewLux reader (PerkinElmer). The percent activation of each test compound was calculated as follows: % Activation=100*(Test Compound−Median Low Control)/(Median High Control ˜Median Low Control).

[2] = test system: XBP1-RLuc reporter (IRE1/XBP1s arm of the UPR); experiment: XBP1-RLuc splicing reporter, 1536-well screen in HEK293T-Rex cells; assay type: cell-based; conditions: % Tg (500 nM) activation, triplicate confirmation screen at 6.8 μM, 18 h
Description: To evaluate the selectivity of our screening hits for ATF6, we employed an alternative luciferase reporter to measure activation of the IRE1/XBP1s arm of the UPR. This reporter contains Renilla luciferase (RLuc) expressed out of frame downstream of the XBP1 splice site, preventing RLuc translation in the absence of stress (FIG. 2b)^36,37. In response to IRE1 activation, the 26-nt XBP1 intron is removed, producing a frame shift that allows for RLuc translation and activity. Robust dose-dependent activation of the XBP1-RLuc reporter upon addition of the ER stressors Tg and Tm was confirmed in HEK293T-Rex cells stably expressing the XBP1-RLuc reporter, producing a Z′ score of 0.75 for Tg.
as §1

[3] = test system: ALLC (amyloidogenic light chain); experiment: Light chain ELISA, ALLC from ALMC-2 plasma cells; assay type: cell-based, human; conditions: ALMC-2 cells; for pEC50: read-out: EC50 of dose dependent reduction in ALLC secretion
Protocol: ALMC-2 or KAS-6/1 plasma cells were plated 100,000 cells/well in 150 μL of media in 96-well MultiScreenHTS filtration plates (Millipore MSBVS1210). Triplicate wells were treated with DMSO or compounds at the indicated concentrations and incubated for 16 h. Media was removed by filtration using a QIAvac 96 vacuum manifold (Qiagen) and wells were washed two times with 150 μL media. Wells were then incubated with 150 μL of fresh media for 2 hr and the conditioned media was harvested into a 96-well plate using the vacuum manifold. Free λLC and IgG concentrations were determined by ELISA in 96-well plates (Immulon 4HBX, Thermo Scientific). Wells were coated overnight at 37° C. with rabbit anti-human A light chain polyclonal antibody (Bethyl Laboratories, A90-112A) at a 1:1000 dilution or human IgG-heavy and light chain antibody (Bethyl Laboratories, A80-118A) at a 1:2000 dilution in 50 mM sodium carbonate (pH 9.6). In between all incubation steps, the plates were rinsed extensively with Tris-buffered saline containing 0.05% Tween-20 (TBST). Plates were blocked with 5% non-fat dry milk in TBST for 1 h at 37° C. Media analytes were diluted between 5-200 fold in 5% non-fat dry milk in TBST and 100 μL of each sample was added to individual wells. Light chain or IgG standards ranging from 3-300 ng/mL were prepared from purified human Bence Jones A light chain or human reference serum (Bethyl Laboratories, P80-127 and RS10-110). Plates were incubated at 37° C. for 1.5 h while shaking. Finally, HRP-conjugated goat anti-human A light chain antibody (Bethyl Laboratories, A80-116P) was added at a 1:10,000 dilution or HRP-conjugate IgG-Fc fragment cross-adsorbed antibody (Bethyl Laboratories, A80-304P, 1:30,000 dilution) was added in 5% non-fat dry milk in TBST, followed by a 1.5 h incubation of the plates at 37° C. The detection was carried out with 2,2′-azinobis(3-ethylbenzothiazoline-6-sulfonic acid) (ABTS, 0.18 mg/mL) and 0.03% hydrogen peroxide in 100 mM sodium citrate pH 4.0. Detection solution (100 μL) was added to each well and the plates were incubated at room temperature. The absorbance was recorded at 405 nm and the values for the LC standards were fitted to a 4-parameter logistic function. Light chain or IgG concentrations were averaged from at least 3 independent replicates under each treatment and then normalized to vehicle conditions.

[4] = test system: ALLC interaction with BiP and GRP94; experiment: In situ cross-linking and ALLC co-immunopurification in ALMC-2 cells; assay type: cell-based, human; conditions: 10 μM, 16 h, cross-linking
Protocol: For immunoprecipitations, cells were washed with PBS then cross-linked with 0.5 mM Dithiobis(succinimidyl propionate) (DSP) for 30 min at room temperature. The reaction was quenched by addition of 100 mM Tris pH 7.5, then RIPA buffer was added to the cell pellets for lysis. Lysates were cleared by centrifugation at centrifuged at 10000×g for 15 min. Proteins were immunopurified using sheep polyclonal free λ LC antibody (Bethyl Laboratories A80-127A) that was covalently conjugated to CNBr-activated Sepharose 4B (GE Healthcare). After four washes in RIPA buffer, proteins were eluted by boiling in Laemmli buffer+100 mM DTT and samples were separated by SDS-PAGE and transferred to nitrocellulose membranes. Blots were probed with the following primary antibodies: monoclonal mouse M2 anti-FLAG (1:500, Sigma), polyclonal rabbit anti-TTR (1:1000, Dako), rabbit polyclonal anti-human lambda light chain (1:1000, Bethyl Laboratories A90-112A), mouse monoclonal anti-Grp78 (1:500, Santa Cruz Biotechnology sc-166490), rabbit polyclonal anti-Grp94 (1:1000, GeneTex GTX103203), rabbit polyclonal anti-PDIA4 (1:1000, Protein Tech Group 14712-1-AP), mouse monoclonal anti-ATF6a (1-7) (BioAcademia, 1:1000), rabbit anti-phospho eIF2α (CellSignaling #9721, 1:500), mouse anti-eIF2α (Abcam ab5369, 1:1000) and mouse monoclonal anti β-actin (1:10000, Sigma).

pEC50 [3]	SMILES	% ERSE-FLuc activation [1] [%]	% XBP1-RLuc activation [2] [%]	ALLC interaction with BiP and GRP94 [4]	reduction of ALLC secretion ([3]; 10 μM pretreatment, ELISA) [%]	ALLC intracellular protein levels ([3]; ELISA)	ALLC secretion (in words) ([3]; 10 μM)
~6.00	Cc1ccc(O)c(N/C=C/C(=O)c2ccc(F)cc2)c1 [Compound 132]	140.1 ± 17.4	10.3 ± 7.9	increased	–	–	–
~6.00	Cc1ccc(O)c(NC(=O)CCc2ccccc2)c1 [Compound 147]	63.2 ± 0.6	17.5 ± 1.9	increased	60	unchanged	–
–	O=[N+]([O-])c1ccc(N/N=C/c2ccccc2O)cc1 [Compound 263]	20.7 ± 2.3	2.4 ± 1.0	unchanged	–	–	only minimally affects
